Source: patent US20170008888A1 (KYORIN PHARMACEUTICAL CO., LTD., priority 2014, published 2017)

What was measured:
ABL or ARG = assay: Probe-based (AX9989) kinase profiling in Jurkat lysate: ABL or ARG; format: binding
How it was run: (§1)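 Jurkat lysate (50 mM HEPES pH 7.5, 150 mM NaCl, 0.1% Triton X-100, 20 mM MnCl2) pre-incubated 15 min with compound at room temperature, then labeled with 5 μM acyl phosphate ATP probe AX9989. Tryptic probe-labeled peptides streptavidin-captured and quantified by LC/MS; percent inhibition from decreased fragment intensity versus untreated.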

TAO2 = biological target: T1, TAO2 (Homo sapiens, UniProt Q9UL54); assay: Probe-based (AX9989) kinase profiling in Jurkat lysate: TAO2; format: binding; details: read-out: TAO2 Inhibition % at indicated screening concentration; for inhibition at 1 µM: screening concentration 1 μM
T1 construct: screened for activity against several kinases in Jurkat cells; endogenous in cells; host or cells: Jurkat cell lysate
T1 sequence (Q9UL54 1-1235): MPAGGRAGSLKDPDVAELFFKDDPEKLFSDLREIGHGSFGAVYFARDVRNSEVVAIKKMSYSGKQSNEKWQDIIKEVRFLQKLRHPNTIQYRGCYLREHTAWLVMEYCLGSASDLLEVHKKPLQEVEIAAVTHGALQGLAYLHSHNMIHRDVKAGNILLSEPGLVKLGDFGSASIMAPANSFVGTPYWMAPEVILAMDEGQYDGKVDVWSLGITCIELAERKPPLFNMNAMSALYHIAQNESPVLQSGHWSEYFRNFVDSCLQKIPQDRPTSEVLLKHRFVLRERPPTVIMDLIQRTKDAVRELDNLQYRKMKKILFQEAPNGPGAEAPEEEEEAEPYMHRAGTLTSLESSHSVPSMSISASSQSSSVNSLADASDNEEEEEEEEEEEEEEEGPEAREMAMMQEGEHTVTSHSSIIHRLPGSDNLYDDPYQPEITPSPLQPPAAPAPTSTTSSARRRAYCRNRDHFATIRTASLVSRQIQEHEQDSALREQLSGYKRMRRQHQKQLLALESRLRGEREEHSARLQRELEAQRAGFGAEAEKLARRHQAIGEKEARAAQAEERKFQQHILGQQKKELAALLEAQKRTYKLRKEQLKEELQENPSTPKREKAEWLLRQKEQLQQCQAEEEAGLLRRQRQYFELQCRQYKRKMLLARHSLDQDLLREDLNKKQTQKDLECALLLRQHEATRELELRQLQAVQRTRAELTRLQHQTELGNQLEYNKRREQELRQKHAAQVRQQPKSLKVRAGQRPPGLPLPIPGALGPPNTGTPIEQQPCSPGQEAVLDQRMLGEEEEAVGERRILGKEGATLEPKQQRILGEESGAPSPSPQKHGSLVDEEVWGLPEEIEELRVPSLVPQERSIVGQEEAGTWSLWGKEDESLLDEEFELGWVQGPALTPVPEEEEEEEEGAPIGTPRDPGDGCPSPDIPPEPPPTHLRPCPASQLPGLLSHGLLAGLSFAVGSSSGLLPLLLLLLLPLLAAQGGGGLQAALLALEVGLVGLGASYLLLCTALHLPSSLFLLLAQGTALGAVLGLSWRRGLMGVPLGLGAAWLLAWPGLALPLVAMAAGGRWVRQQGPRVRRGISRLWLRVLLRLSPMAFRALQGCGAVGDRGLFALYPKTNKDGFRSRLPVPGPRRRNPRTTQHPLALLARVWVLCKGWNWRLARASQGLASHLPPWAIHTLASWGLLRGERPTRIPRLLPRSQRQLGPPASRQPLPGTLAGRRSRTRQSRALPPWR
How it was run: as §1

AMPKa1 or AMPKa2 = assay: Probe-based (AX9989) kinase profiling in Jurkat lysate: AMPKa1 or AMPKa2; format: binding
How it was run: as §1

JAK1 = biological target: T2, JAK1 (Homo sapiens, UniProt P23458); assay: Probe-based (AX9989) kinase profiling in Jurkat lysate: JAK1; format: binding; details: read-out: JAK1 Inhibition % at indicated screening concentration; for inhibition at 1 µM: screening concentration 1 μM
T2 construct: screened for activity against several kinases in Jurkat cells; endogenous in cells; host or cells: Jurkat cell lysate
How it was run: as §1

ERK5 = biological target: T3, ERK5 (Homo sapiens, UniProt Q13164); assay: Probe-based (AX9989 acyl phosphate ATP probe) kinase profiling in Jurkat lysate: ERK5; format: binding; details: for IC50: calculated from percent inhibition and screening concentration, Jurkat lysate, AX9989 probe; for inhibition at 1 µM: screening concentration 1 μM
T3 construct: screened for activity against several kinases in Jurkat cells; endogenous in cells; host or cells: Jurkat cell lysate
How it was run: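 ERK5 IC50 values came from percent inhibition at the screening concentration, measured as loss of LC/MS signal of probe-labelled active-site peptides. Compound was added for 15 min at room temperature to Jurkat lysate (5 mg/ml, 20 mM MnCl2) before labelling with AX9989 ATP acyl phosphate probe at 5 μM.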

ACK = biological target: T4, ACK (Homo sapiens, UniProt Q07912); assay: Probe-based (AX9989) kinase profiling in Jurkat lysate: ACK; format: binding; details: read-out: ACK Inhibition % at indicated screening concentration; for inhibition at 1 µM: screening concentration 1 μM
T4 construct: screened for activity against several kinases in Jurkat cells; endogenous in cells; host or cells: Jurkat cell lysate
How it was run: as §1

human PBMCs = assay: Human PBMC TNF-α response to endotoxin (ELISA); format: cell-based; details: 0.1 μg/ml LPS 16 h, read-out: EC50 for the inhibition of the human PBMC TNF-α response to endotoxin, ave. ± S.D.
How it was run: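 PBMCs at 2e6 cells/ml in RPMI 1640 with 10% charcoal-dextran-treated FBS were pre-treated 1 h at 37 °C with compound (4-point 1:5 dilution from 10 μM). Stimulation with 0.1 μg/ml E. coli 0111:B4 LPS for 16 h; TNF-α measured by ELISA (A450) in 25-fold diluted supernatant.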

AurB or AurC = assay: Probe-based (AX9989) kinase profiling in Jurkat lysate: AurB or AurC; format: binding
How it was run: as §1

AurA = biological target: T5, AurA (Homo sapiens, UniProt O14965); assay: Probe-based (AX9989) kinase profiling in Jurkat lysate: AurA; format: binding; details: read-out: AurA Inhibition % at indicated screening concentration; for inhibition at 1 µM: screening concentration 1 μM
T5 construct: screened for activity against several kinases in Jurkat cells; endogenous in cells; host or cells: Jurkat cell lysate
T5 sequence (O14965 1-403): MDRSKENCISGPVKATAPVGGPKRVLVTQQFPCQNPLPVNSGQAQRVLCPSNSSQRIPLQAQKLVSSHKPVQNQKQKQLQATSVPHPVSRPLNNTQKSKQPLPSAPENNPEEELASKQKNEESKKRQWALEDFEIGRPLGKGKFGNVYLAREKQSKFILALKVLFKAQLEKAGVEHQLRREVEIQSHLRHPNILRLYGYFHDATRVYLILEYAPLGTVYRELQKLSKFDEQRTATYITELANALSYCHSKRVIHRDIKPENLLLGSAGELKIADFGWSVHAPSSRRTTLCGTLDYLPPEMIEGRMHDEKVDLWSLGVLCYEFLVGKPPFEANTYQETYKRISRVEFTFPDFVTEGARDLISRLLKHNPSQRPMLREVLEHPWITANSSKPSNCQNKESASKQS
How it was run: as §1

[1] = read-out: ERK5 Inhibition % at indicated screening concentration

T4 sequence (Q07912 whole entry): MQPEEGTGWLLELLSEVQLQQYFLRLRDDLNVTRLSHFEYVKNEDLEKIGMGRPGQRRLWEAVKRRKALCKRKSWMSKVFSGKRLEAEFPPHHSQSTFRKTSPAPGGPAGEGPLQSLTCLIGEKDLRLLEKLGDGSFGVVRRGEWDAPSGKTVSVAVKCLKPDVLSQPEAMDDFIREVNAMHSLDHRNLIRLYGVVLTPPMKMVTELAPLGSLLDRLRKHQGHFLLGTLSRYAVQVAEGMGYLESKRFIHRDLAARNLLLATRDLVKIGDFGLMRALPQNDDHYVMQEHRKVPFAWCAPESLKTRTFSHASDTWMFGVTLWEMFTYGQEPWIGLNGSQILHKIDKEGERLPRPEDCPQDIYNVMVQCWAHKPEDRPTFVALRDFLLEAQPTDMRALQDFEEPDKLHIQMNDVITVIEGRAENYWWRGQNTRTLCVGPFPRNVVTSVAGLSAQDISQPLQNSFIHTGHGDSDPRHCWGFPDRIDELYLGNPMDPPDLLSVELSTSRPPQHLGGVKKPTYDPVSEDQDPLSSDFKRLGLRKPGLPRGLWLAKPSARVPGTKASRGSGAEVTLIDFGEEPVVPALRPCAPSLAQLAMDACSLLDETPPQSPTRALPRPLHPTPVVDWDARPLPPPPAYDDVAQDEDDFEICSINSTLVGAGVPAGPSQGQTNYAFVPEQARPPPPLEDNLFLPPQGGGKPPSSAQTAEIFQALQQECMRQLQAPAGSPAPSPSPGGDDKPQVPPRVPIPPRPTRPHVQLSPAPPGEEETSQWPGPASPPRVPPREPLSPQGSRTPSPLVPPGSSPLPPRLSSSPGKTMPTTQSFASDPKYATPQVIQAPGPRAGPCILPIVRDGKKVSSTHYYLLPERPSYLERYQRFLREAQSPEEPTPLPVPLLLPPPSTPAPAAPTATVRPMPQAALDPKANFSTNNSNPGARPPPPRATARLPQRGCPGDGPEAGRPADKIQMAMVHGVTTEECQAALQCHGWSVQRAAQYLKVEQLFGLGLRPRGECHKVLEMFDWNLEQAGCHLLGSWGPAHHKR
T2 sequence (P23458 whole entry): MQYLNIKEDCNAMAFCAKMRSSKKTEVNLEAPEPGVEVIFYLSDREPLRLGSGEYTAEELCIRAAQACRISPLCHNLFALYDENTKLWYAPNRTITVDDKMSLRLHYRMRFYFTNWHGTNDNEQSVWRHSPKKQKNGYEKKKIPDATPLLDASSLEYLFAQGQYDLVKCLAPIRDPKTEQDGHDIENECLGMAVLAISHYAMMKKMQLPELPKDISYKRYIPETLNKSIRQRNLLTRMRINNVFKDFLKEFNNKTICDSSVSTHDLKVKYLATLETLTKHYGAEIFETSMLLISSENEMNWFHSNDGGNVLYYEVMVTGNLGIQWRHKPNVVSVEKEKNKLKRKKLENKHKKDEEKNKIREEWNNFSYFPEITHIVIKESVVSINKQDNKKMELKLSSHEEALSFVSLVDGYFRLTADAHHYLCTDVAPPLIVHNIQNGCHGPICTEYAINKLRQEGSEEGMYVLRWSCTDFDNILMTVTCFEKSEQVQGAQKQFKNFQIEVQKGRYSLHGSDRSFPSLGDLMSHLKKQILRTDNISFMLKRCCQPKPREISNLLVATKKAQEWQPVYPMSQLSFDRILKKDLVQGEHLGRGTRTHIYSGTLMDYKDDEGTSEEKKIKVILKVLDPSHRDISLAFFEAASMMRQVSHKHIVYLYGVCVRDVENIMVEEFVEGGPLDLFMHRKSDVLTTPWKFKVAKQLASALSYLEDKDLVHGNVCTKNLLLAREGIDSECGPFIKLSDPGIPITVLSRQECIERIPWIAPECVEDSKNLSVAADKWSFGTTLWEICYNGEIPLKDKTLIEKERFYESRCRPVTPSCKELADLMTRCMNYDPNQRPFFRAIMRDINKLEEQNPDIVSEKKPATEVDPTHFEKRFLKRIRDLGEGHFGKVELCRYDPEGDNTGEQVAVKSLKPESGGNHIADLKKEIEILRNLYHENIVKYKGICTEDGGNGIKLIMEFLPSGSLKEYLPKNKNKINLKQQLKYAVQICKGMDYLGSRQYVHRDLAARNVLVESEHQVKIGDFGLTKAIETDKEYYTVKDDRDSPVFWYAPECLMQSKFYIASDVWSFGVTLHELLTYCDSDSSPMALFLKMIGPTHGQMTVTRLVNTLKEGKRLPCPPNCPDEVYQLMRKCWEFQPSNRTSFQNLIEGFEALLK
T3 sequence (Q13164 whole entry): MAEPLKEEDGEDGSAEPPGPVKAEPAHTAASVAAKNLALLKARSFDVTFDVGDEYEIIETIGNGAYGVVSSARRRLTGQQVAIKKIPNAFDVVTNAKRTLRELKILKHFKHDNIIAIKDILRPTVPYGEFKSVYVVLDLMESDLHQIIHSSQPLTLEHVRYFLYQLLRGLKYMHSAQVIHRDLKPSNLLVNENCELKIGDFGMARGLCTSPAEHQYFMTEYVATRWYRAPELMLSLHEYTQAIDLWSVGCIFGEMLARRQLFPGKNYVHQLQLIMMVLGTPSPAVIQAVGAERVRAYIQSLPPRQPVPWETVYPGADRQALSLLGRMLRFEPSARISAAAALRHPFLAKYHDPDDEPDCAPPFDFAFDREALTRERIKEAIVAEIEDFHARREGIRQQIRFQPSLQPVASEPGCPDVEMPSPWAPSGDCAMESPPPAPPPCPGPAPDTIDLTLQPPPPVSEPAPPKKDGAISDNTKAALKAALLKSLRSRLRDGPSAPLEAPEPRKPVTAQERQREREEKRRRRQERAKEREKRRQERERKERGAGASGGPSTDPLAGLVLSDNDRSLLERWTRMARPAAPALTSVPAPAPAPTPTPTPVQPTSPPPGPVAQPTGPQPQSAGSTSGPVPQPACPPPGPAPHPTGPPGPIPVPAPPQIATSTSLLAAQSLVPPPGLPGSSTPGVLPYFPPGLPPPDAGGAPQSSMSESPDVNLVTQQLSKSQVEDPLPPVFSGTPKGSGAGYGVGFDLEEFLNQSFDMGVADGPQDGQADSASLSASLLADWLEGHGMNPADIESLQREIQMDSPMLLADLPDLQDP

Row | SMILES | ABL or ARG Inhibition % at indicated screening concentration (ABL or ARG; screening concentration 10 μM) | inhibition at 10 µM (TAO2; screening concentration 10 μM) | AMPKa1 or AMPKa2 Inhibition % at indicated screening concentration (AMPKa1 or AMPKa2; screening concentration 10 μM) | inhibition at 10 µM (JAK1; screening concentration 10 μM) | IC50 (ERK5) | inhibition at 10 µM (ERK5; screening concentration 10 μM, read-out: ERK5 Inhibition % at indicated screening concentration) | inhibition at 10 µM (ACK; screening concentration 10 μM) | EC50 (human PBMCs) | AurB or AurC Inhibition % at indicated screening concentration (AurB or AurC; screening concentration 10 μM) | inhibition at 10 µM (AurA; screening concentration 10 μM) | ABL or ARG Inhibition % at indicated screening concentration (ABL or ARG; screening concentration 1 μM) | inhibition at 1 µM (TAO2) | AMPKa1 or AMPKa2 Inhibition % at indicated screening concentration (AMPKa1 or AMPKa2; screening concentration 1 μM) | inhibition at 1 µM (JAK1) | inhibition at 1 µM (ERK5; [1]) | inhibition at 1 µM (ACK) | AurB or AurC Inhibition % at indicated screening concentration (AurB or AurC; screening concentration 1 μM) | inhibition at 1 µM (AurA)
1 | CCOc1cc(C(=O)N2CCC(N3CCCC3)CC2)ccc1Nc1cc2c(cn1)N(C)C(=O)N1C=CC=CC1=N2 [Compound T66] | E (E is ≦35%) | ≤ 35% | E (E is ≦35%) | ≤ 35% | > 0.5 µM | 35 to 50% | 50 to 75% | > 10 µM | E (E is ≦35%) | ≤ 35% |  |  |  |  |  |  |  | 
2 | CCOc1cc(C(=O)N2CCN(C(C)=O)CC2)ccc1Nc1cc2c(cn1)N(C)C(=O)c1ccccc1N2C1CC1 [Compound T67] |  |  |  |  | ≤ 0.05 µM |  |  | 4.9 µM |  |  | E (E is ≦35%) | ≤ 35% | E (E is ≦35%) | ≤ 35% | > 90% | 35 to 50% | E (E is ≦35%) | ≤ 35%
3 | CCOc1cc(C(=O)N2CC[C@@H](N3CCN(C)CC3)C2)ccc1Nc1cc2c(cn1)N(C)C(=O)c1ccccc1N2C1CC1 [Compound T68] |  |  |  |  | ≤ 0.05 µM |  |  | 1.4 µM |  |  | E (E is ≦35%) | ≤ 35% | E (E is ≦35%) | ≤ 35% | > 90% | ≤ 35% | E (E is ≦35%) | ≤ 35%
4 | CN1CCN([C@@H]2CCN(C(=O)c3ccc(Nc4cc5c(cn4)N(C)C(=O)c4ccccc4N5C)c(F)c3)C2)CC1 [Compound T69] |  |  |  |  | ≤ 0.05 µM |  |  | 3.48 µM |  |  | E (E is ≦35%) | ≤ 35% | E (E is ≦35%) | ≤ 35% | > 90% | 35 to 50% | E (E is ≦35%) | ≤ 35%
5 | CC(=O)N1CCN(C(=O)c2ccc(Nc3cc4c(cn3)N(C)C(=O)c3ccccc3N4C)c(F)c2)CC1 [Compound T71] |  |  |  |  | ≤ 0.05 µM |  |  | 4.2 µM |  |  | E (E is ≦35%) | ≤ 35% | E (E is ≦35%) | ≤ 35% | > 90% | ≤ 35% | E (E is ≦35%) | ≤ 35%
6 | CN1C(=O)c2ccccc2N(C)c2cc(Nc3ccc(C(=O)N4CCN(S(C)(=O)=O)CC4)cc3F)ncc21 [Compound T72] |  |  |  |  | ≤ 0.05 µM |  |  | 4.25 µM |  |  | E (E is ≦35%) | ≤ 35% | E (E is ≦35%) | ≤ 35% | > 90% | ≤ 35% | D (D is >35% to ≦50%) | ≤ 35%
7 | CCOc1cc(C(=O)N2CCN(C(C)=O)CC2)ccc1Nc1cc2c(cn1)N(C)C(=O)c1scnc1N2C [Compound T73] |  |  |  |  | > 0.5 µM |  |  | > 10 µM |  |  | E (E is ≦35%) | ≤ 35% | E (E is ≦35%) | ≤ 35% | 35 to 50% | ≤ 35% | E (E is ≦35%) | ≤ 35%
8 | CCOc1cc(C(=O)N2CC[C@@H](N3CCN(C)CC3)C2)ccc1Nc1cc2c(cn1)N(C)C(=O)c1scnc1N2C [Compound T74] |  |  |  |  | > 0.5 µM |  |  | 4.82 µM |  |  | E (E is ≦35%) | ≤ 35% | E (E is ≦35%) | ≤ 35% | 50 to 75% | ≤ 35% | E (E is ≦35%) | ≤ 35%
